Results on 2 molecules are retold here after patent publication US12545672B2, “Antibiotic compounds, methods of manufacturing the same, pharmaceutical compositions containing the same and uses thereof” (Debiopharm International S.A., priority 2018, dated 2026).

The test system of one series is Caco-2. Nature of the series: Caco-2 permeability assay. In kind it is in vitro ADME. The settings on record: 120 min incubation. As to the method: (§1) Caco-2 assay: Compounds were incubated in a Caco-2 24-transwell system (Solvo Biotechnologies, Hungary) for 120 min, after which samples were taken from the donor and acceptor compartments of the transwell system. The integrity of each cell monolayer was controlled by measuring transepithelial electrical resistance (TEER) before the experiment. Lucifer yellow permeability (B to A) was also tested as a control on the same plate (all wells) after the actual experiment. The samples were analyzed using UPLC/MS/MS. The permeation of the compounds was monitored using relative LC/MS/MS peak areas (initial donor solution sample=100%).
(In general: Passage across Caco-2 layers is used to estimate intestinal permeability.)

Another series deals with Neisseria gonorrhoeae. Put plainly: MIC50 by CLSI agar dilution on a panel of N. gonorrhoeae clinical isolates. As to conditions: agar dilution, GC agar base, minimum of 15 clinical isolates. It is filed as cell-based. As to the method:
MIC50: MICs were determined in accordance with the appropriate Clinical and Laboratory Standards Institute (CLSI) methodology by the agar dilution susceptbility testing method in GC agar base.
(In agar dilution the substance is mixed into plates at graded concentrations.)

A short description of series [1]: Prediction of hepatic extraction ratio from liver microsome stability. In kind it is in vitro ADME. As to conditions: human liver microsomes, Well-Stirred model.
Description: In short, the study compounds were incubated with liver microsomes supplemented with cofactors (1 mM NADPH, 1 mM UDPGA+15 mM alamethicin). At selected time points, the assays were quenched using an equal volume of cold acetonitrile and samples were analyzed by UPLC/HR-MS to monitor disappearance rate of the compounds. […] With the use of species-specific physiologically-based scaling factors (PBSF) and the Well-Stirred model of hepatic clearance as modified by Poulin et al, Journal of Pharmaceutical Sciences, vol. […] 11, November 2012, the in vitro CLint was further transformed into in vivo CLint and to hepatic extraction ratio (ER) for both mouse and human.
The nature of series [2]: Mouse cassette PK and oral bioavailability determination. In kind it is in vivo, Female BALB/c mice. The settings on record: iv 1 mg/kg, po 2 mg/kg, cassette dosing. As to the method: Dose volumes were 5 ml/kg and 10 ml/kg for IV and oral administration, respectively. Compounds were co-formulated in a 10% DMSO (v/v) and 40% Captisol (w/v) in saline solution formulation (up to 3 compounds in a cassette). […] Tmax, Cmax, AUC, clearance, volume of distribution and oral bioavailability were estimated from the plasma concentrations using non-compartmental pharmacokinetic models. In particular, oral bioavailability (F %) was defined as F=(Doseiv*AUCpo)/(Dosepo*AUCiv)*100

The target in series [3] is Neisseria gonorrhoeae FabI (Neisseria gonorrhoeae, UniProt A0ACH0F547). Put plainly: Neisseria gonorrhoeae FabI inhibition assay (NADH consumption).
Chain of Neisseria gonorrhoeae FabI (A0ACH0F547 1-261): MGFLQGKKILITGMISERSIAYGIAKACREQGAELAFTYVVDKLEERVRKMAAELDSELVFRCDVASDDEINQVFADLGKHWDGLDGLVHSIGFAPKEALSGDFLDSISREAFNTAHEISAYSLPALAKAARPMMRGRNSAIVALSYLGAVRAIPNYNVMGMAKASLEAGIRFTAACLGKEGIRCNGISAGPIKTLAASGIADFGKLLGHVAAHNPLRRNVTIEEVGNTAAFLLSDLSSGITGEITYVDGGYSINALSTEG
Description: Neisseria gonorrhoeae FabI Inhibition Assay:
Inhibition of Neisseria gonorrhoeae FabI enzyme activity was tested by measuring the rate of NADH consumption (Δabsorbance at 340 nm/min) at 30° C. in 96-well plate format using an automated plate reader in the presence or absence of the test compounds. […] This dose-response inhibitory assay was performed using an 11-point, serial dilution series for each test compound. IC50 values for each test compound were assigned from logistical sigmoid curve-fitting of the inhibition dose response curves.
Series [4] in a line: Caco-2 permeability assay. It is filed as in vitro ADME. The settings on record: human, Caco-2; A2B, 120 min incubation. As to the method: as §1

pIC50: −log10 of the molar value. Like-named read-outs stand apart in the source and are kept apart here.

Regarding `O=C1CCNc2cc(/C=C/C(=O)N3C[C@H]4CC(c5ccc(Oc6ccncc6)cc5)=C[C@H]4C3)cnc2N1` (racemic) [Compound 90, 8-((E)-3-Oxo-3-((3rS,6rR)-5-(4-(pyridin-4-yloxy)phenyl)-3,3r,4,6r-tetrahydrocyclopenta[c]pyrrol-2(1H)-yl)prop-1-en-1-yl)-1,2,3,5-tetrahydro-4H-pyrido[2,3-b][1,4]diazepin-4-one], in the series on Caco-2, the “Caco-2 Papp A2B” value is 10.7 10−6 cm/s. The MIC50 – broadly, the lowest concentration that inhibits either 50% of growth or 50% of the strains tested, depending on the study – in the series on Neisseria gonorrhoeae is below 1 µg/mL. Also, in series [1], the “Predict Human hep ER” value is listed as 0.03. In series [2], the “Mouse F (%)” value worked out at 7%. Also, the pIC50 (in general, the negative decadic logarithm of the IC50, by convention in mol/L) in series [3] (read-out: ngFabI IC50, recombinant N. gonorrhoeae FabI, 30° C., pH 7.2) was above 8.00.
`Cc1c(CN(C)C(=O)/C=C/c2cnc3c(c2)NCC2(CC(O)C2)C(=O)N3)oc2ccccc12` (stereo not shown) [Compound 115, (E)-3-(3-Hydroxy-4′-oxo-1′,2′,4′,5′-tetrahydrospiro[cyclobutane-1,3′-pyrido[2,3-b][1,4]diazepin]-8′-yl)-N-methyl-N-((3-methylbenzofuran-2-yl)methyl)acrylamide]: the apparent permeability from apical to basolateral (Papp A→B) (in general, the apparent permeability from the apical to the basolateral side of a cell layer) at 120 min in series [4] was found to be 3.4 ×10⁻⁶ cm/s. Also, the MIC50 in the series on Neisseria gonorrhoeae (Neisseria gonorrhoeae, read-out: MIC50) was below 1 µg/mL. Also, the “Predict Human hep ER” value in series [1] was 0.28. The bioavailability in series [2] (female, BALB/c, mouse, plasma, read-out: Mouse F (%)) was 18%. In addition, the pIC50 in series [3] was above 8.00.
